In PMC12040169 (PLOS Biology, 2025):

Experiment: in vitro
Conditions: human, hela cells, % viability

SMILES	viability at 28.5 h, 10 µM [%]
O=C1NCC2(C/C=C/CCOc3ccccc31)CCN(Cc1ccccn1)CC2 [CBK292159]	84.2
CC(Cc1ccccn1)NC(=O)Cc1ccc2c(c1)CCCO2 (stereo not shown) [CBK282115]	95
CC(NC(=O)/C(=C\c1ccccc1)NC(=O)c1ccc(Br)o1)C(=O)O (stereo not shown) [CBK264934]	107
CCCc1oc(C(=O)O)cc1CN1CCCCC1 [CBK267973C]	99
CC(=O)Nc1cccc(NC(=O)N2CCN(Cc3ccccc3)CC2)c1 [CBK155643]	98
COC(=O)c1ccc(CC(C)C)nc1SC1=NCCCN1 [CBK005294C]	94.1
COc1ccccc1-c1ccc(NC(=O)c2ccc3c(c2)ncn3C)cc1 [CBK285652]	103
COCCNC(=O)c1cnc2ccc(OC)cc2c1O [CBK159999]	95.9
COc1ccc(-c2oc3ncn4nc(COc5ccccc5C)nc4c3c2-c2ccc(OC)cc2)cc1 [CBK265283]	94.8
CN1CCN(c2ccc([N+](=O)[O-])cc2/C=N/NC(=O)CCc2ccccc2O)CC1 [CBK263281]	97.7
CC1CCC(N(CCCN)Cc2ccco2)CC1C (stereo not shown) [CBK268947]	95.6
Cc1cccc(S(=O)(=O)N2CCN(C)CC2)c1 [CBK097893]	93.6
CCN(CC)C(=O)c1ccccc1NS(=O)(=O)c1ccc(F)cc1 [CBK045414]	87.7
COc1ccccc1-c1cc2nc(C)cc(N3CCOCC3)n2n1 [CBK304532]	88.7
CCOc1ccc(Cl)cc1CCNC(=O)NC(C)c1nnnn1C (stereo not shown) [CBK305923]	89.2
C=C(Br)Cn1c(COc2cccc3ccccc23)nc2ccccc21 [CBK263373]	97.3
O=C(CN1CCOCC1)N/N=C/c1cc2ccccc2nc1Cl [CBK262732]	101
O=C1CNC(=O)N1CC(O)Cn1c2ccc(Cl)cc2c2cc(Cl)ccc21 (stereo not shown) [CBK265792]	90.1
Cc1cc(C)cc(N(C(C)C(=O)Nc2ccccc2-c2ccccc2)S(C)(=O)=O)c1 (stereo not shown) [CBK268770]	101
Nc1ccc2ccc(-c3ccncc3)nc2n1 [CBK067622]	82.8
CC(=O)Nc1ccc(-c2ccc(C(=O)N3CCN(C4CCN(C)CC4)CC3)cn2)cc1 [CBK158824]	96.7
CC(=O)Nc1ccc(Nc2ccc([N+](=O)[O-])cc2[N+](=O)[O-])cc1 [CBK260886]	84.6

SMILES	viability at 28.5 h, 10 µM [%]
COc1cccc2c1cc(C(=O)NCCCc1ccccn1)n2C [CBK283283]	83.7
Cc1[nH]c(=O)c(S(=O)(=O)c2ccccc2)c(C)c1Cl [CBK018736]	83.1
O=C(c1cccnc1NCc1ccc2c(c1)OCO2)N1CCNCC1 [CBK156112T]	104
COc1cc(C(=O)Nc2ccc(-c3nc4ncccc4o3)cc2)ccc1OCc1ccc(Cl)cc1 [CBK033914]	92.7
CN(C)c1ccc(CNC(=O)Cn2nc(C(=O)O)c3ccccc3c2=O)cc1 [CBK295330]	105
CC(O)CNCc1ccc(OCC(=O)NC(C)(C)C)cc1 (stereo not shown) [CBK270232C]	87.1
CC(CNC(=O)C(C)(C)C)NC(=O)C(C)(C)C (stereo not shown) [CBK265443]	93.6
NC(=O)CC1Nc2cccc3cccc(c23)NC1=O (stereo not shown) [CBK267560]	75
CCCn1c(SCc2csc(COc3ccc(Cl)cc3)n2)n[nH]c1=O [CBK295140]	82.3
O=C1/C(=C/c2cn(Cc3cccc4ccccc34)c3ccccc23)C(O)=NN1c1ccccc1 [CBK264849]	94.7
c1csc(CNc2nc3ccccc3n2CCN2CCOCC2)c1 [CBK262462]	109
CN(C)c1ccc(-n2ncc(-c3ccccc3C(F)(F)F)n2)cc1 [CBK112716]	92.4
Cc1[nH]c2c(C)ccc(C)c2c1CC(=O)N1[C@@H](c2ccccc2F)C[C@@H]2NC(=O)CCC[C@H]21 [CBK286011]	76.3
OC(Cn1nnc2ccccc21)Cn1c(-c2ccccc2)c(-c2ccccc2)c2ccc3ccccc3c21 (stereo not shown) [CBK264054G]	92.9
O=C(CSc1ccc(Cl)cc1)NCCCN1CCOCC1 [CBK009390]	99.6
O=C(O)c1[nH]c2ccccc2c1C(c1c(F)cccc1Cl)c1c(C(=O)O)[nH]c2ccccc12 [CBK267797]	87.4
CCCCOC(=O)CCc1nc2ccccc2nc1O [CBK264523]	97.3
O=C1CCC(=O)N1CCn1c(=O)n(C(=O)CCCOc2ccc(Cl)cc2)c2ccccc21 [CBK106496]	93.4
N#Cc1cccnc1SC(C(=O)O)c1ccccc1 (stereo not shown) [CBK286614]	106
N#C/C(=C\c1ccc(O)cc1)c1nc(-c2ccc3c(c2)OCO3)cs1 [CBK262370]	96.8
CC1CCN(Cc2nc3c(c(=O)n(C)c(=O)n3C)n2CCN2CCOCC2)CC1 [CBK269291]	108
O=C(C1=C(O)C(=O)N(CCCN2CCOCC2)C1c1ccccn1)c1ccccc1 (stereo not shown) [CBK266604]	93.4

SMILES	viability at 28.5 h, 10 µM [%]
CCOc1ccccc1NC(=O)NCc1cccnc1 [CBK267026]	107
NS(=O)(=O)c1ccc(CCNc2ncnc3c2c(-c2ccccc2)cn3-c2ccc(F)cc2)cc1 [CBK266478]	92
Cc1ccc(OCc2occc2C(=O)NCCn2ccnc2C)cc1 [CBK306725]	93.7
CS(=O)(=O)c1ccc(-c2ccc3c(n2)CCN(C2CCN(C(=O)OCc4ccccc4)CC2)C3)cc1 [CBK169530]	81.8
CN1CCN(C(=O)CC[C@@H]2CNC(=O)[C@@H]3C[C@H](NC(=O)c4ccccc4)CN23)CC1 [CBK289014]	86.7
Cc1cc(C)c2c(CC(=O)N(C)CCN(C)C)coc2c1 [CBK282174]	106
O=C(Nc1cccnc1)c1cc(S(=O)(=O)N2CCOCC2)ccc1Br [CBK270101]	92.4
c1coc(CN2CCC(c3ccc4c(c3)OCO4)CC2)c1 [CBK284001]	90.3
CN1CCCN(Cc2ccc3c(c2)c(=O)c(C(=O)NCc2ccc(Cl)cc2)cn3C)CC1 [CBK018019]	82.8
C=CCNC(=O)Cn1c(-c2ccc(OC)cc2)cc2cccnc21 [CBK285363]	83.2
O=C(CN1C(=O)S/C(=C\c2ccc(Cl)cc2)C1=O)Nc1cc([N+](=O)[O-])ccc1O [CBK262396]	90.4
NC(=O)C1CCN(C2=NC(=O)/C(=C/c3cn(-c4ccccc4)nc3-c3ccc(F)cc3)S2)CC1 [CBK265175]	106
OC1(c2ccccc2)CCNCC1 [CBK012290]	101
COc1ccc(OCC(=O)Nc2cccc(-c3nnc4c5ccccc5c(C)nn34)c2)cc1 [CBK266743]	105
CCS(=O)(=O)n1nc(-c2ccc(OC)cc2)nc1SC [CBK266526]	103
O=S(=O)(Nc1ccc2[nH]ccc2c1)c1ccc(Br)cc1F [CBK153510]	88.9
C=C(C)CNC(=O)c1cc(-c2ccc(OC)cc2)cnc1NCC1CC1 [CBK076339]	97.7
CCn1c(CNC(=O)C(C)Cn2cc(Cl)cn2)nc2ccccc21 (stereo not shown) [CBK281392]	91.9
C(=C\c1ccccc1)/CSc1nnc(-c2cnccn2)n1Cc1ccco1 [CBK267587]	119
Cc1cc(=O)[nH]c(SCc2nc3ccccn3c2Br)n1 [CBK296063]	121
CC(=O)C(/N=N\c1ccc(S(=O)(=O)Nc2nccs2)cc1)C(=O)Nc1ccc(Cl)cc1 (stereo not shown) [CBK015826]	86.8
O=C(O)C1CC1(C(=O)O)C(=O)O (stereo not shown) [CBK261009]	103

SMILES	viability at 28.5 h, 10 µM [%]
Cc1cc2c(=O)n(Cc3ccco3)c(SCc3cc(O)[nH]n3)nc2s1 [CBK268291]	94.3
Cc1onc(-c2ccccc2)c1CNC(=O)CC1CCCCC1 [CBK144078]	89.1
O=c1[nH]nc2c(SC3CCCCC3)nccn12 [CBK288471]	69.4
COCc1cccc(-c2nccnc2Oc2cccc(OC)c2)c1 [CBK106958]	90.6
Cc1ccc(C(=O)NCC2COc3ccccc3O2)c(N2CCOCC2)n1 (stereo not shown) [CBK076519]	106
CC(=O)Oc1ccc2c(=O)c(C3NC(C(=O)O)Cc4c3[nH]c3ccccc43)coc2c1 (stereo not shown) [CBK293948]	120
CC(C)n1cc(CN2CCNC(=O)C2c2ccccc2C(F)(F)F)nn1 (stereo not shown) [CBK304732]	91.6
O=C(CC1S/C(=N/N=C/c2ccc(-c3ccc(Br)cc3)o2)NC1=O)Nc1ccccc1 (stereo not shown) [CBK264499]	106
COc1cncc(-c2cncc(Nc3cc(OC)c(OC)c(OC)c3)n2)c1 [CBK065397]	95.1
CCOc1ccc2ccccc2c1CNCCSc1nnnn1C [CBK270046C]	90.6
COc1ccc(CCNC(=O)c2cnc(-c3ccc(Cl)cc3)c(-c3cccc(CNC(C)=O)c3)c2)cc1OC [CBK164413]	95
Clc1ccc2c(c1)OCC[C@@H]2Oc1cncc(N2CCNCC2)n1 [CBK172313G]	86.2
CCCC/C=C/c1cnc2[nH]c(=O)n(CC(C)C)c2n1 [CBK064225]	96.4
CCN(CC)CCN1CCN(c2cncc(-c3ccc(F)cc3F)n2)CC1 [CBK065668]	107
c1ccc2c(c1)nc(N1CCNCC1)n1cnnc21 [CBK270145]	100
CN(C)c1ccc(/C=C/c2noc(-c3ccccc3O)n2)cc1 [CBK268438]	109
CC(C)(C)S(=O)(=O)c1ccc(C(=O)O)s1 [CBK260880]	91.4
COc1cccc(NC(=O)CN2CCN(c3nc4ccc([N+](=O)[O-])cc4s3)CC2)c1 [CBK264089]	93.7
O=C(O)CCCNC(=O)COc1ccccc1OCC(=O)NCCCC(=O)O [CBK296089]	90
CC(=O)Nc1ccc(S(=O)(=O)Nc2ccccc2C(=O)O)cc1 [CBK042361]	107
C[C@H](NC(=O)N1CCN(C(=O)CCc2c[nH]c3ccccc23)CC1)C(=O)O [CBK286774]	97.7
CC(C)CC(=O)N1CCCC(n2c(=O)oc3ccc(Cl)cc32)C1 (stereo not shown) [CBK282891]	89.3
